Results: patent US9903855B2, “Assays for screening for or identifying an agent or molecule that can block or inhibit AVB3 integrin from forming a complex with KRAS” (THE REGENTS OF THE UNIVERSITY OF CALIFORNIA, priority 2012, dated 2018)

What was measured:
[1] = test system: β3-positive cells (FG-β3, MDA-MB231, FG-R); test: Soft agar anchorage independent growth, colonies counted; assay type: cell-based, human; settings: erlotinib (0.5 μM), Lenalidomide (2 μM), PS-1145 (1 μM) alone, 10 to 15 days
Text: Then, the soft agar were stained with crystal violet and the colonies were counted manually.

[2] = test system: subcutaneous β3-positive tumors (FG-β3, FG-R); test: Subcutaneous β3-positive tumor xenografts; settings: monotherapy; lenalidomide 25 mg/kg/day, bortezomib 0.25 mg/kg
Method: To generate subcutaneous tumors, FG-β3, FG-R (after erlotinib resistance) and HCC-827 human carcinoma cells (5×10^6 tumor cells in 200 μl of PBS) were injected subcutaneously to the left or right flank of 6-8-week-old female nude mice. Tumors were measured every 2-3 days with calipers until they were harvested at day 10, 16 or after acquired resistance.
(B) Left, mice bearing subcutaneous β3-positive tumors (FG-β3) were treated with vehicle, erlotinib (25 mg/kg/day), lenalidomide (25 mg/kg/day) or the combination of erlotinib and lenalidomide. Tumor dimensions are reported as the fold change relative to size of the same tumor on Day 1. […] Right, mice bearing subcutaneous β3-positive tumors (FG-R) after acquired resistance to erlotinib were treated with vehicle, erlotinib (25 mg/kg/day), bortezomib (0.25 mg/kg), the combination of erlotinib and bortezomib.

[3] = test system: FG and FG-β3 cells; test: Tumor sphere formation assay of FG and FG-β3 cells; assay type: cell-based, human; settings: FG-β3 versus FG
Method: Tumor spheres formation assays were performed essentially as described previously^17. Briefly, cells were seeded at 1000 to 2000 cells per well and grown for 12 days to 3 weeks. Cells were treated with vehicle (DMSO), erlotinib (10 nM to 5 μM), lapatinib (10 nM to 5 μM), gemcitabine (0.001 nM to 5 μM), OSI-906 (10 nM to 5 μM), lenalidomide (10 nM to 5 μM), or cisplatin (10 nM to 5 μM), diluted in DMSO. The media was replaced with fresh inhibitor every day for erlotinib, lapatinib, lenalidomide and 3 times a week for cisplatin and gemcitabine. Colonies were stained with crystal violet and scored with an Olympus SZH10 microscope. Survival curves were generated at least with five concentration points.

[4] = test system: FG and PANC-1 cells expressing or lacking integrin β3; test: Soft agar / tumorsphere 3D growth, drug dose response (Example 3); assay type: cell-based, human; settings: cells growing in 3D
Method: Tumorsphere assay was performed as previously described. Soft agar formation assays were performed essentially as described previously. […] The media was replaced with fresh inhibitor 2/5 times a week. […] (a) Effect of integrin β3 expression (ectopic expression for FG and integrin β3-specific knockdown for PANC-1) cells on drug treatment response. Cells were treated with a dose response of gemcitabine, cisplatin, erlotinib, lapatinib and linsitinib. […] Tumor volumes are expressed as mean±SEM. *P<0.05. […] Results are expressed as % tumor weight compared to vehicle control. *P<0.05. […] HCC827 cells were treated with vehicle control or erlotinib (12.5 mg/kg/day) until acquired resistance. […] Data are mean±SE; **P<0.001. […] Scale bar, 50 μm. (h) Limiting dilution in vivo determining the frequency of tumor-initiating cells for HCC827 vehicle-treated (vehicle) and erlotinib-treated tumors from (erlotinib resistant non-sorted) (e). The HCC827 erlotinib-treated tumors have been digested and sorted in two groups: the integrin β3- and the integrin β3+ population.

[5] = test system: β3-negative and β3-positive cells; test: Tumorsphere assay of β3-negative and β3-positive cells (Example 2); assay type: cell-based, human; settings: β3-positive versus β3-negative cells
Method: Tumorsphere assay was performed as previously described (10). Cells were treated with vehicle (DMSO), erlotinib (10 nM to 5 μM), lapatinib (10 nM to 5 μM), gemcitabine (0.001 nM to 5 μM), OSI-906 (10 nM to 5 μM), lenalidomide (1 μM), cisplatin (10 nM to 5 μM), or bortezomib (4 nM) diluted in DMSO. The media was replaced with fresh inhibitor 2/6 times a week. Survival curves were generated at least with five concentration points.
(D) Representative photographs of crystal violet-stained tumorspheres of β3-negative and β3-positive cells after erlotinib, OSI-906, gemcitabine and cisplatin treatment. (E) Effect of integrin β3 expression on lapatinib, OSI-906, cisplatin and gemcitabine n=3; mean±SEM.

[6] = test system: FG, H441, and CAPAN1; test: Erlotinib response of human carcinoma cell lines in 3D culture; assay type: cell-based; settings: tumor cell lines with oncogenic KRAS
Method: (§1) Tumorsphere assay was performed as previously described (10).
(§2) (C) Percentage of integrin β3 positive cells in parental lines vs. after 3 or 8 weeks treatment with erlotinib. (D) Quantification of integrin β3 (ITGβ3) gene expression in human lung cancer biopsies from patients from the BATTLE Study (18) who were previously treated with an EGFR inhibitor and progressed (n=27), versus patients who were EGFR inhibitor naïve (n=39). (*P=0.04 using a Student's t test). (E) Paired human lung cancer biopsies obtained before and after erlotinib resistance were immunohistochemically stained for integrin β3. Scale bar, 50 μm. (F) Right, effect of integrin β3 knockdown on erlotinib resistance of β3-positive cells. Cells were treated with 0.5 μM of erlotinib. […] Left, effect of integrin β3 ectopic expression on erlotinib resistance in FG and H441 cells. […] (G) Right, effect of integrin β3 knockdown on erlotinib resistance in vivo, A549 shCTRL and A549 sh integrin β3 (n=8 per treatment group) were treated with erlotinib (25 mg/kg/day) or vehicle during 16 days. Results are expressed as average of tumor volume at day 16. *P<0.05. Left, orthotopic FG and FG-β3 tumors (>1000 mm^3; n=5 per treatment group) were treated for 30 days with vehicle or erlotinib. Results are expressed as % tumor weight compared to vehicle control. *P<0.05.

[7] = test system: H1650 cells; test: as above; assay type: cell-based; settings: wildtype KRAS and mutant EGFR
Method: as §1, §2

[8] = test system: PANC-1 cells; test: Tumor sphere formation assay, erlotinib dose-response; assay type: cell-based, human; settings: knockdown of αvβ3 in PANC-1 cells
Text: (§3) (a) Flow cytometric quantification of cell surface markers after 3 weeks treatment with erlotinib (pancreatic and colon cancer cells) or lapatinib (breast cancer cells). (b) Flow cytometric analysis of αvβ3 expression in FG and Miapaca-2 cells following erlotinib. Error bars represent s.d. (n=3 independent experiments). (c) Top, immunofluorescence staining of integrin αvβ3 in tissue specimens obtained from orthotopic pancreatic tumors treated with vehicle (n=3) or erlotinib (n=4). Scale bar, 50 μm. Bottom, Integrin αvβ3 expression was quantified as ratio of integrin αvβ3 pixel area over nuclei pixel area using Metamorph (*P=0.049 using Mann-Whitney U test). (d) Right, intensity (scale 0 to 3) of β3 expression in mouse orthotopic lung tumors treated with vehicle (n=8) or erlotinib (n=7). Left, immunohistochemical staining of β3. Scale bar, 100 μm.
Tumor spheres formation assays were performed essentially as described previously^17. Briefly, cells were seeded at 1000 to 2000 cells per well and grown for 12 days to 3 weeks. […] The media was replaced with fresh inhibitor every day for erlotinib, lapatinib, lenalidomide and 3 times a week for cisplatin and gemcitabine. Colonies were stained with crystal violet and scored with an Olympus SZH10 microscope.

[9] = test system: stage IV non-small cell lung cancer; test: Serial biopsies from NSCLC patients on erlotinib therapy; assay type: in vivo, human
Text: Tumor biopsies from University of California, San Diego (UCSD) Medical Center stage IV non-small cell lung cancer patients were obtained before erlotinib treatment and 3 patients before and after erlotinib resistance. All biopsies are from lung or pleural effusion. […] This work was approved by the UCSD Institutional Review Board (IRB).

[10] = test system: phosphorylated TBK1 and NF-κB; test: Immunoblot analysis of RalB effectors in cells grown in suspension; assay type: cell-based, human; settings: for levels of phosphorylated TBK1 and NF-κB: erlotinib (0.5 μM)
Method: Immunoblot analysis of FG, FG-β3 and FG-β3 stably expressing non-silencing or RalB-specific ShRNA, grown in suspension and treated with erlotinib (0.5 μM). pTBK1 refers to phospho-S172 TBK1, p-p65 NF-κB refers to phospho-p65 NF-κB S276, pFAK refers to phospho-FAK Tyr 861. Data are representative of three independent experiments. (b) Tumor spheres formation assay of FG cells ectopically expressing vector control, WT NF-κB FLAG tagged or constitutively active S276D NF-κB FLAG tagged constructs treated with erlotinib (0.5 μM). Error bars represent s.d. (n=3 independent experiments). *P<0.05, **P<0.001, NS=not significant. Immunoblot analysis showing NF-κB WT and S276D NF-κB FLAG transfection efficiency. (c) Tumor spheres formation assay of FG-β3 treating with non-silencing (shCTRL) or NF-κB-specific shRNA and exposed to erlotinib (0.5 μM). Error bars represent s.d. (n=3 independent experiments). *P<0.05, NS=not significant. (d) Dose response in FG-β3 cells treated with erlotinib (10 nM to 5 μM), lenalidomide (10 nM to 5 μM) or a combination of erlotinib (10 nM to 5 μM) and lenalidomide (1 μM). Error bars represent s.d. (n=3 independent experiments). *P<0.05, NS=not significant. (e) Model depicting the integrin αvβ3-mediated EGFR TKI resistance and conquering EGFR TKI resistance pathway and its downstream RalB and NF-κB effectors.
Cells were lysed in either RIPA lysis buffer (50 mM Tris pH 7.4, 100 mM NaCL, 2 mM EDTA, […], 10% Triton, 0.1% SDS) or Triton lysis buffer (50 mM Tris pH 7.5, 150 mN NaCl, 1 mM EDTA, 5 mM MgCl2, 10% Glycerol, 1% Triton) supplemented with complete protease and phosphatase inhibitor mixtures (Roche) and centrifuged at 13,000 g for 10 min at 4° C. Protein concentration was determined by BCA assay. […]
(A) Effect of RalB knockdown on erlotinib resistance of β3-positive epithelial cancer cell lines. […] Results are expressed as % of tumor weight changes after erlotinib treatment compared to vehicle. **P<0.01. […]

[11] = test system: EGFR phosphorylation; test: Immunoblot analysis of orthotopic FG tumor lysates; assay type: in vivo, mice; settings: after 10 days of erlotinib
Method: Error bars represent s.d. […] Scale bar, 50 μm. […] Scale bar, 100 μm.
All mouse experiments were carried out in accordance with approved protocols from the UCSD animal subjects committee and with the guidelines set forth in the NIH Guide for the Care and Use of Laboratory Animals. Tumors were generated by injection of FG human pancreatic carcinoma cells (10^6 tumor cells in 30 μL of sterile PBS) into the tail of the pancreas of 6-8 week old male immune compromised nu/nu mice.

[12] = test system: H441 human lung adenocarcinoma orthotopic tumors; test: Orthotopic lung cancer xenograft model; assay type: in vivo, mice
Text: as §3

SMILES: Nc1cccc2c1CN(C1CCC(=O)NC1=O)C2=O (racemic) [lenalidomide, (RS)-3-(4-amino-1-oxo-3H-isoindol-2-yl)piperidine-2,6-dione]
- response of β3-positive cells, tumorsphere formation in soft agar [1]: resistant
- tumor growth [2]: failed to impact tumor growth

SMILES: C[C@]1(O)C[C@@H](c2nc(-c3ccc4ccc(-c5ccccc5)nc4c3)c3c(N)nccn32)C1 [OSI-906]
- effect of αvβ3 expression on drug resistance [3]: induced resistance
- effect of β3 expression on drug response [4]: reduced sensitivity

SMILES: O=C(Nc1cc(Cl)cc2c1[nH]c1cnccc12)c1cccnc1 [PS-1145]
- response of β3-positive cells, tumorsphere formation in soft agar [1]: resistant

SMILES: CC(C)C[C@H](NC(=O)[C@H](Cc1ccccc1)NC(=O)c1cnccn1)B(O)O [bortezomib]
- tumor growth [2]: failed to impact tumor growth

SMILES: N.N.[Cl][Pt][Cl] [cisplatin]
- effect of αvβ3 expression on drug resistance [3]: failed to protect cells
- effect of β3 expression on drug response [4]: did not impact the response
- effect of integrin β3 expression on resistance [5]: did not impact resistance

SMILES: C#Cc1cccc(Nc2ncnc3cc(OCCOC)c(OCCOC)cc23)c1 [erlotinib, N-(3-ethynylphenyl)-6,7-bis(2-methoxyethoxy) quinazolin-4-amine]
- erlotinib sensitivity [6]: sensitive
- erlotinib sensitivity [7]: resistant
- increase in tumor cell sensitivity to erlotinib [8]: 10 fold
- time to disease progression ([9]; Patient 1): 920 days
- time to disease progression ([9]; Patient 2): 92 days
- time to disease progression ([9]; Patient 3): 120 days
- initial clinical response ([9]; all 3 patients): initial partial response
- activation of TBK1 and NF-κB ([10]; FG and FG-β3, erlotinib (0.5 μM), Example 2): decreased the activation of these effectors only in the absence of integrin β3
- levels of phosphorylated TBK1 and NF-κB ([10]; αvβ3 negative cells): reduced levels of phosphorylated TBK1 and NF-κB
- levels of phosphorylated TBK1 and NF-κB ([10]; β3-positive cells): remained activated
- EGFR phosphorylation in tumor lysates [11]: suppressed EGFR phosphorylation
- time treated until moribund ([12]; 100 mg/kg/day by oral gavage, start 3 weeks after tumor cell injection): ~58 days
- tumor response to systemic erlotinib ([12]; systemic erlotinib treatment for 7-8 weeks): developed resistance
- effect of β3 expression on drug response [4]: reduced sensitivity
- response of β3-positive cells, tumorsphere formation in soft agar [1]: resistant

SMILES: Nc1ccn([C@@H]2O[C@H](CO)[C@@H](O)C2(F)F)c(=O)n1 [gemcitabine]
- effect of αvβ3 expression on drug resistance [3]: failed to protect cells
- effect of β3 expression on drug response [4]: did not impact the response
- effect of integrin β3 expression on resistance [5]: did not impact resistance

SMILES: CS(=O)(=O)CCNCc1ccc(-c2ccc3ncnc(Nc4ccc(OCc5cccc(F)c5)c(Cl)c4)c3c2)o1 [lapatinib]
- effect of β3 expression on drug response [4]: reduced sensitivity
